Laboratory results reported in patent US10851082B2, “Substituted aromatic n-heterocyclic compounds as inhibitors of mitogen-activated protein kinase interacting kinase 1 (MNK1) and 2 (MNK2)” (Northwestern University, priority 2015, dated 2020).
Like-named read-outs stand apart in the source and are kept apart here.

Experiments:
[1] = target: Mnk1 (Homo sapiens (Human), UniProt Q9BUB5); assay: Mnk1 kinase inhibition, ADP-Glo ADP monitoring assay; format: biochemical
Protocol: (§1) The synthesized compounds then were tested for inhibition of the kinase activity (IC50) of Mnk1 and/or Mnk2 using the ADP monitoring assay for kinases described in Zegzouti, H.; Zdanovskaia, M.; Hsiao, K.; Goueli, S. A., ADP-Glo: A Bioluminescent and homogeneous ADP monitoring assay for kinases.

[2] = target: Mnk2 (Homo sapiens (Human), UniProt Q9HBH9); assay: Mnk2 kinase inhibition, ADP-Glo ADP monitoring assay; format: biochemical
Sequence of Mnk2 (Q9HBH9 whole entry): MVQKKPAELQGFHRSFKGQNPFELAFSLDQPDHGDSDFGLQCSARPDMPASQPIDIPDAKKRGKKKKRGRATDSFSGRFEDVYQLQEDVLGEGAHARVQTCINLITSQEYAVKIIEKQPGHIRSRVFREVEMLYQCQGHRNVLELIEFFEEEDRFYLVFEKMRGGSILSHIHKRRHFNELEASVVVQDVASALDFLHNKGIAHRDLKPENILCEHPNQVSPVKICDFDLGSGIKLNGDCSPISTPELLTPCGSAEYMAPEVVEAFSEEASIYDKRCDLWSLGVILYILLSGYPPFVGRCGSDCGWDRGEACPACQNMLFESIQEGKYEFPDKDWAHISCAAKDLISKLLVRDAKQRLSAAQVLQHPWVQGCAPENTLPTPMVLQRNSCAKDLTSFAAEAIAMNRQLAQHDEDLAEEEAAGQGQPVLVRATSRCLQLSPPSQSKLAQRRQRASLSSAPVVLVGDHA
Protocol: as §1

[3] = target: Mnk1; assay: Cellular inhibition of Mnk1, flow cytometry of phospho-eIF-4E (Ser209), U937 cells; format: cell-based
Protocol: (§2) To evaluate inhibition of Mnk1 in cells, we utilized a flow cytometry-based assay based on activation of eIF-4E, the downstream target of Mnk1. The assay utilizes flow cytometry to quantitatively measure the amount of eIF-4E that is phosphorylated at residue Ser209 in cell lysate from U937 or MV4-11 cell lines. Cells grown in the presence of serum were treated with vehicle or test compounds across a range of concentrations. Levels of phospho-eIF-4E were measured and IC50 values were determined by logistic regression to quantify the potency of each compound.

[4] = target: Mnk1; assay: Cellular inhibition of Mnk1, flow cytometry of phospho-eIF-4E (Ser209), MV4-11 cells; format: cell-based
Protocol: as §2

[5] = test system: U937 cells; assay: Cell viability assay (CellTiter-Glo), U937; format: cell-based; settings: Homo sapiens, U-937; U937 cells, ATP levels with CellTiter-Glo; read-out: U937 viability EC50
Protocol: (§3) To measure the ability of the new Mnk1/2 inhibitors to kill cancer cells in vitro, U937 or MV4-11 cells were incubated with different concentrations of test compounds and analyzed for apoptosis and cell viability at 5 and 24 hours post-treatment.

[6] = test system: MV4-11 cells; assay: Cell viability assay (CellTiter-Glo), MV4-11; format: cell-based; settings: Homo sapiens; MV4-11 cells, ATP levels with CellTiter-Glo; read-out: MV4-11 viability EC50
Protocol: as §3

[7] = ADP-Glo kinase assay, read-out: Mnk2 IC50
[8] = read-out: Mnk1 inhibition IC50 (+,++,+++)
[9] = ADP-Glo kinase assay, read-out: Mnk2 inhibition IC50 (+,++,+++)
[10] = read-out: U937 pEIF4E cellular flow IC50 (+,++,+++), flow cytometry
[11] = read-out: MV4-11 pEIF4E cellular flow IC50 (+,++,+++), flow cytometry
[12] = unit inferred, read-out: Mnk1 IC50
[13] = ADP-Glo kinase assay, unit inferred, read-out: Mnk2 IC50

Sequence of Mnk1 (Homo sapiens (Human), UniProt Q9BUB5) (Q9BUB5 whole entry): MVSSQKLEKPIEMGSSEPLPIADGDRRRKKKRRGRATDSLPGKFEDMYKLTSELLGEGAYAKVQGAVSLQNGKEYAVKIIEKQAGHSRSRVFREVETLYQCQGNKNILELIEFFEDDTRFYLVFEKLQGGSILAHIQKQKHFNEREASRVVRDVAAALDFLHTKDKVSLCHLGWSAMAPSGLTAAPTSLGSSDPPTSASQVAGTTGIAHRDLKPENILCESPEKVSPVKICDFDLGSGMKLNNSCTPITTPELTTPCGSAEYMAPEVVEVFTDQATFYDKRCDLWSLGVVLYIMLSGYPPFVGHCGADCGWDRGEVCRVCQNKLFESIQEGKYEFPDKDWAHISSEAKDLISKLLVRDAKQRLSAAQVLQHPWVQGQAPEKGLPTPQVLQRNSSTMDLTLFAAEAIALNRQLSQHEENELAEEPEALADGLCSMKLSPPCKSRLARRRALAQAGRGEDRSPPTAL

Row | SMILES | IC50 [1, 8] | IC50 [2, 9] | also measured
1 | c1ccc2c(c1)ccn2-c1ccnc(NCCc2cnc[nH]2)n1 [NUCC-0060958] |  |  | IC50 ([1]; read-out: Mnk1 IC50): 900 nM; IC50 [2, 7]: 95 nM; IC50 ([3]; read-out: U937 pEIF4E IC50, phospho-eIF-4E Ser209, flow cytometry): 230 nM; IC50 ([4]; read-out: MV4-11 pEIF4E IC50, phospho-eIF-4E Ser209, flow cytometry): 47 nM
2 | c1ccc2c(c1)ncn2-c1ccnc(NCCc2ccncc2)n1 [NUCC-0060957] |  |  | EC50 [5]: 5300 nM; EC50 [6]: 120 nM
3 | Clc1cnc(OC2CCCOC2)nc1-n1cnc2ccccc21 (stereo not shown) [NUCC-0200803] | < 1000 nM | < 1000 nM | IC50 [3, 10]: < 1000 nM; IC50 [4, 11]: < 1000 nM
4 | Clc1cnc(NCCc2ccncc2)nc1-n1cnc2ccccc21 [NUCC-0175697] |  |  | EC50 [5]: 7000 nM; EC50 [6]: 350 nM
5 | N#Cc1cnc(OC2CC(N)C2)nc1-n1cnc2ccccc21 (stereo not shown) [NUCC-0200907, 2-(3-aminocyclobutoxy)-4-(1H-benzo[d]imidazol-1-yl)pyrimidine-5-carbonitrile] | < 1000 nM | < 1000 nM | IC50 [3, 10]: < 1000 nM; IC50 [4, 11]: < 1000 nM
6 | N#Cc1cnc(OCCc2ccncc2)nc1-n1cnc2ccccc21 [NUCC-0200786] | < 1000 nM | < 1000 nM | IC50 [3, 10]: < 1000 nM; IC50 [4, 11]: < 1000 nM
7 | N#Cc1cnc(OC2CCOC2)nc1-n1cnc2ccccc21 (stereo not shown) [NUCC-0200792] | < 1000 nM | < 1000 nM | IC50 [3, 10]: < 1000 nM; IC50 [4, 11]: < 1000 nM
8 | Clc1cnc(OCCc2ccccn2)nc1-n1cnc2ccccc21 [NUCC-0200807] | < 1000 nM | < 1000 nM | IC50 [3, 10]: < 1000 nM; IC50 [4, 11]: < 1000 nM
9 | O=C1CCCN1CCOc1ncc(Cl)c(-n2cnc3ccccc32)n1 [NUCC-0200811] | < 1000 nM | < 1000 nM | IC50 [3, 10]: < 1000 nM; IC50 [4, 11]: < 1000 nM
10 | NC(=O)c1cccc(-c2cnc(OC3CCNC3)nc2-n2cnc3ccccc32)c1 (stereo not shown) [NUCC-0201901] | 1000 to 10000 nM | < 1000 nM | 
11 | Fc1ccc2c(ncn2-c2nc(OCCc3ccccn3)ncc2Cl)c1F [NUCC-0201662] | < 1000 nM | < 1000 nM | 
12 | Nc1ccc(CCOc2ncc(Cl)c(-n3cnc4ccccc43)n2)cc1 [NUCC-0201892] | < 1000 nM | < 1000 nM | 
13 | COc1ccc(Oc2ncc(Cl)c(-n3cnc4ccccc43)n2)cc1 [NUCC-0200809] |  |  | Mnk1 inhibition IC50 (+,++,+++) [1]: no activity; Mnk2 inhibition IC50 (+,++,+++) ([2]; ADP-Glo kinase assay): no activity
14 | N#Cc1cnc(OCCN2CCCC2=O)nc1-n1cnc2ccccc21 [NUCC-0200788] | < 1000 nM | < 1000 nM | IC50 [3, 10]: < 1000 nM; IC50 [4, 11]: < 1000 nM
15 | c1ccc(Cn2cc(-c3ccnc(NCCc4c[nH]cn4)c3)cn2)cc1 [NUCC-0077167] |  |  | IC50 ([1]; read-out: Mnk1 IC50): 8000 nM; IC50 [2, 7]: 7600 nM
16 | Cc1nc2ccccc2n1-c1nc(OC2CC(N(C)C)C2)ncc1Cl (stereo not shown) [NUCC-0201016, 3-((5-chloro-4-(2-methyl-1H-benzo[d]imidazol-1-yl)pyrimidin-2-yl)oxy)-N,N-dimethylcyclobutanamine] | 1000 to 10000 nM |  | IC50 [2]: 1000 to 10000 nM
17 | CC(C)(COc1ncc(C#N)c(-n2cnc3ccccc32)n1)c1ccnc(F)c1 [NUCC-0201917] | < 1000 nM | < 1000 nM | 
18 | N#Cc1cnc(OCCc2ccnc(F)c2)nc1-n1cnc2ccccc21 [NUCC-0201918] | < 1000 nM | < 1000 nM | 
19 | N[C@H]1C[C@H](Oc2ncc(Cl)c(-n3cnc4ccccc43)n2)C1 [NUCC-0201052] | < 1000 nM | < 1000 nM | 
20 | c1ccc2c(c1)CCN2c1ccnc(N[C@H]2CCOC2)n1 [NUCC-0176231] |  |  | IC50 ([1]; read-out: Mnk1 IC50): 1100 nM; IC50 [2, 7]: 380 nM
21 | N#Cc1cnc(NCCCc2ccncc2)nc1-n1cnc2ccccc21 [NUCC-0200913] | > 10000 nM | > 10000 nM | 
22 | O=C(O)CNc1ncc(Cl)c(-n2cnc3ccccc32)n1 [NUCC-0176361] |  |  | Mnk1 IC50 [1]: no activity; Mnk2 IC50 ([2]; ADP-Glo kinase assay): no activity
23 | Clc1cnc(NCCc2c[nH]c3ccccc23)nc1-n1cnc2ccccc21 [NUCC-0176355] |  |  | IC50 ([1]; read-out: Mnk1 IC50): 13000 nM; IC50 [2, 7]: 2400 nM
24 | c1cc(CCNc2nccc(-n3cnc4cnccc43)n2)ccn1 [NUCC-0176143] |  |  | IC50 ([1]; read-out: Mnk1 IC50): 4300 nM; IC50 [2, 7]: 1100 nM
25 | O=C1CCCN1CCCNc1ccnc(-n2cnc3ccccc32)n1 [NUCC-0176345] |  |  | IC50 ([1]; read-out: Mnk1 IC50): 10000 nM; IC50 [2, 7]: 2600 nM

Row | SMILES | IC50 [1, 8] | IC50 [2, 9] | also measured
26 | NC1CC(Oc2nc(-n3cnc4ccccc43)c3ccccc3n2)C1 (stereo not shown) [NUCC-0201894] | < 1000 nM | < 1000 nM | 
27 | Nc1cc(-n2cnc3ccccc32)nc(NCCc2ccncc2)n1 [NUCC-0196307] |  |  | IC50 [1, 12]: 870 nM; IC50 [2, 13]: 170 nM
28 | COC(=O)CNc1ncc(Cl)c(-n2cnc3ccccc32)n1 [NUCC-0176356] |  |  | IC50 ([1]; read-out: Mnk1 IC50): 11000 nM; IC50 [2, 7]: 1400 nM
29 | Brc1cnc(OCCc2ccncc2)nc1-n1cnc2ccccc21 [NUCC-0200789] | < 1000 nM | < 1000 nM | 
30 | Clc1cnc(OC2CCOC2)nc1-n1cnc2ccccc21 (stereo not shown) [NUCC-0200805] | < 1000 nM | < 1000 nM | 
31 | N#Cc1cnc(-n2cnc3ccccc32)nc1OC1CCc2cccnc21 (stereo not shown) [NUCC-0200906] | 1000 to 10000 nM | < 1000 nM | 
32 | N#Cc1cnc(OC2CCNC2)nc1-n1cnc2ccccc21 (stereo not shown) [NUCC-0200793] | < 1000 nM | < 1000 nM | IC50 [3, 10]: < 1000 nM; IC50 [4, 11]: < 1000 nM
33 | CC(C)(COc1ncc(Cl)c(OCC(C)(C)c2ccnc(F)c2)n1)c1ccnc(F)c1 [NUCC-0201919] | 1000 to 10000 nM |  | IC50 [2]: 1000 to 10000 nM
34 | c1ccc2c(c1)ncn2-c1cc(NCCc2ccncc2)ncn1 [NUCC-0176284] |  |  | IC50 ([1]; read-out: Mnk1 IC50): 2600 nM; IC50 [2, 7]: 1200 nM
35 | NC(=O)c1cccc(-c2cnc(OC3CC(N)C3)nc2-n2cnc3ccccc32)c1 (stereo not shown) [NUCC-0201899] | 1000 to 10000 nM | < 1000 nM | 
36 | CC(C)(COc1nc(-n2cnc3ccccc32)ncc1Cl)c1ccnc(F)c1 [NUCC-0201920] | < 1000 nM | < 1000 nM | 
37 | COC(=O)c1cnc(NCCc2ccncc2)nc1-n1cnc2ccccc21 [NUCC-0196309] |  |  | IC50 [1, 12]: > 10000 nM; IC50 [2, 13]: > 10000 nM
38 | N#Cc1cnc(OC2CC(N)C2)nc1-n1cnc(-c2ccc(Cl)c(Cl)c2)c1 (stereo not shown) [NUCC-0201248] | 1000 to 10000 nM | < 1000 nM | 
39 | FC(F)(F)c1ccc(CCNc2ncc(Cl)c(-n3cnc4ccccc43)n2)cc1 [NUCC-0200784] | > 10000 nM |  | IC50 [2]: 1000 to 10000 nM
40 | Clc1cnc(NC2CCNC2)nc1-n1cnc2ccccc21 (stereo not shown) [NUCC-0201007] | < 1000 nM | < 1000 nM | 
41 | N#Cc1cnc(OCc2ccncc2)nc1-n1cnc2ccccc21 [NUCC-0200904] | 1000 to 10000 nM |  | IC50 [2]: 1000 to 10000 nM
42 | COC(=O)c1ccc2c(c1)ncn2-c1nc(NCCc2ccncc2)ncc1Cl [NUCC-0200799] | 1000 to 10000 nM | < 1000 nM | 
43 | N#Cc1cnc(OCc2ccccn2)nc1-n1cnc2ccccc21 [NUCC-0200902] | < 1000 nM | < 1000 nM | 
44 | COC(=O)c1cc(-n2cnc3ccccc32)nc(NCCc2ccncc2)n1 [NUCC-0196230] |  |  | IC50 [1, 12]: > 10000 nM; IC50 [2, 13]: > 10000 nM
45 | Clc1cnc(NC2CCC2)nc1-n1cnc2ccccc21 [NUCC-0201050] | 1000 to 10000 nM |  | IC50 [2]: 1000 to 10000 nM
46 | Clc1cnc(OCCc2ccncc2)nc1-n1cnc2ccccc21 [NUCC-0196254, 1-(5-chloro-2-(2-(pyridin-4-yl)ethoxy)pyrimidin-4-yl)-1H-benzo[d]imidazole] | < 1000 nM | < 1000 nM | IC50 [1, 12]: 54 nM; IC50 [2, 13]: 9.6 nM; IC50 [4, 11]: < 1000 nM
47 | OC1CCC(Nc2nccc(-n3cnc4ccccc43)n2)CC1 (stereo not shown) [NUCC-0176166] |  |  | IC50 ([1]; read-out: Mnk1 IC50): 390 nM; IC50 [2, 7]: 63 nM
48 | N#Cc1cnc(OCCc2ccccn2)nc1-n1cnc2ccccc21 [NUCC-0200790] | < 1000 nM | < 1000 nM | IC50 [3, 10]: < 1000 nM; IC50 [4, 11]: < 1000 nM
49 | N#Cc1cnc(NC2C3CC2C3)nc1-n1cnc2ccccc21 (stereo not shown) [NUCC-0201137, 4-(1H-benzo[d]imidazol-1-yl)-2-(bicyclo[1.1.1]pentan-2-ylamino)pyrimidine-5-carbonitrile] | < 1000 nM | < 1000 nM | 
